Experimental data reported in article PMC11052071, “Novel JAK Inhibitors to Reduce Graft-Versus-Host Disease after Allogeneic Hematopoietic Cell Transplantation in a Preclinical Mouse Model” (Molecules, 2024).
Like-named read-outs stand apart in the source and are kept apart here.

Tests used:
GvHD = assay: Preclinical mouse model of allo-HCT (GvHD); assay type: in vivo, Balb/c recipient mice
Excerpt: To determine the potential of WU4 and WU8 in preventing GvHD, we performed allo-HCT in which 5 × 10^6 T cell-depleted bone marrow (TCD-BM; CD45.1+) and 5 × 10^5 splenic pan T cells (CD45.2+) obtained from B6 mice were transplanted into lethally irradiated (900 cGy on day −1) Balb/c allogeneic recipient mice on day 0. […]. […] Among monocyte subsets, we only considered classical (LyG6^−CD11b^+Ly6C^high) and intermediate monocytes (LyG6^−CD11b^+Ly6C^middle) as APCs, excluding non-classical monocytes (LyG6^−CD11b^+Ly6C^low) due to their anti-inflammatory function, which downregulates antigen presentation during inflammation. […]
Figure 5 In vivo administration of WU4 and WU8 reduces GvHD by increasing % of Tregs while suppressing % of APCs and costimulatory proteins on APCs after allo-HCT. Allo-HCT was performed as follows: 5 × 10^6 TCD-BM (CD45.1+) and 5 × 10^5 splenic T cells (CD45.2+) obtained from B6 mice were transplanted on day 0 into lethally irradiated (900 cGy on day −1) Balb/c allogeneic recipient mice. TCD-BM-only group served as a no-GvHD control. […] (A,B) The mice were monitored for survival and GvHD signs. (C–F) Whole splenocytes were analyzed for % of Tregs, recipient/BM-derived APCs, and CD80-expressing APCs on day 6 after allo-HCT. LyG6^−CD11b^+Ly6C^high and LyG6^−CD11b^+Ly6C^middle served as classical and intermediate monocyte subsets. NT: neutrophils. * p < 0.05, ** p < 0.01, and *** p < 0.001. All error bars are represented as mean ± standard deviation.
Allo-HCT was performed as previously described. Briefly, BALB/c mice were used as recipients and received 9 Gy total body irradiation on day −1, then were transplanted with 5 × 10^6 T cell-depleted bone marrow (TCD-BM) cells from B6 (CD45.1+) mice along with 0.5 × 10^6 splenic T cells from B6 (CD45.2+) mice on day 0. Mouse TCD-BM and splenic T cells were prepared using an EasySep mouse CD90.2 positive selection kit II and an EasySep mouse T cell isolation kit ([…] Technologies, Cambridge, MA, USA), respectively.
GvHD clinical scores were assessed twice per week by a scoring system incorporating five clinical criteria: weight loss (diarrhea scored 1 regardless of weight change), posture (hunching), mobility, fur texture, and skin integrity, as previously described. Individual mice were scored from 0 to 2 for each criterion and were sacrificed with GvHD scores of 6 or above, following our approved animal protocol.
T cells from in vitro primary murine T cell culture, fresh peripheral blood, or whole splenocytes were analyzed according to cell surface and intracellular markers. Surface markers were directly stained with flow antibodies for 20 min at 4 °C. For intracellular staining (FOXP3 and T-bet), cells were fixed and permeabilized after surface staining using appropriate buffers (One-step intracellular nuclear protein staining protocol, eBioscience, San Diego, CA, USA) and stained with flow antibodies. The antibodies used for flow cytometric analyses for mouse cells were as follows: FOXP3, T-BET, and CD183 (eBioscience, San Diego, CA, USA); CD3, H2-Kb, H2-Kd, CD4, B220, CD11b, CD11c, Ly6C, and DEC205 (BioLegend, San Diego, CA); and CD8, CD45.2, CD80, and Ly6G (BD Pharmingen, San Jose, CA, USA). All cells were run on a ZE5 Cell Analyzer (BD Biosciences, Mountain View, CA, USA) or Attune® NxT (Thermofisher Scientific, Waltham, MA, USA) and analyzed with the FlowJo software, version 10.9.0 (FlowJo LLC., Ashland, OR, USA).

[1] = human; cited from earlier work
[2] = cited from earlier work; for terminal plasma half-life: human
TYK2 = TYK2 (Homo sapiens, UniProt P29597); assay: Z'-LYTE enzyme activity assay (SelectScreen Kinase Profiling), TYK2
TYK2, sequence (P29597 whole entry): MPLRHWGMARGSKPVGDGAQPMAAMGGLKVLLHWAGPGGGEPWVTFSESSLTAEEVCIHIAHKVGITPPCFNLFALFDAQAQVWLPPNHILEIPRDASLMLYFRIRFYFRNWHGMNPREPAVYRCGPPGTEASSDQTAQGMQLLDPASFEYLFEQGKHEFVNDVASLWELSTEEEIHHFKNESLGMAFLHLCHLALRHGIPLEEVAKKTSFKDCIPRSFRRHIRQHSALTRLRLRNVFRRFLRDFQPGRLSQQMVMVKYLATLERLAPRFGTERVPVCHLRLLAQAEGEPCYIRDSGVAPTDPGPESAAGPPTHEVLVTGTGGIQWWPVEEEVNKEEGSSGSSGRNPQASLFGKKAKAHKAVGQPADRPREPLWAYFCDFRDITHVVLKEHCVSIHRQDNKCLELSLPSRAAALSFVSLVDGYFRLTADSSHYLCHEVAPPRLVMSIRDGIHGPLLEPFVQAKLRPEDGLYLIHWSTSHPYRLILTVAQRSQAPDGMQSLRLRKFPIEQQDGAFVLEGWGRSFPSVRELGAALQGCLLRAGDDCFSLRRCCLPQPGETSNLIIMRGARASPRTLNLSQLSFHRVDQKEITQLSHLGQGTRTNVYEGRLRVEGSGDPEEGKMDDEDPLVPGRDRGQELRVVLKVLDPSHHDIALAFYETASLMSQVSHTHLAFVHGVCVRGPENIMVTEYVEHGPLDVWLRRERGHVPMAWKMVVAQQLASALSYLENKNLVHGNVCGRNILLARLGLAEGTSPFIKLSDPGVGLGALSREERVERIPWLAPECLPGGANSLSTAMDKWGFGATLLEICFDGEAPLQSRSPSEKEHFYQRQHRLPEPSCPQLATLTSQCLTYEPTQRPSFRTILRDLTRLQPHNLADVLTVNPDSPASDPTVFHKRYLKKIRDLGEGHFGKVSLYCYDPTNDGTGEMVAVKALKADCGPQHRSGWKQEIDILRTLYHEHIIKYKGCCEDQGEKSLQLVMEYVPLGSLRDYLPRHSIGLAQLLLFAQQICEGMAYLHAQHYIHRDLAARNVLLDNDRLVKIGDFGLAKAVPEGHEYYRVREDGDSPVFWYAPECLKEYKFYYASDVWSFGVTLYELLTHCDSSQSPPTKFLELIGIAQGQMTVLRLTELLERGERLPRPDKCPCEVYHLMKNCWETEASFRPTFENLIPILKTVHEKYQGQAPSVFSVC

JAK3 = target: T1, JAK3 (Homo sapiens, UniProt P52333); assay: Z'-LYTE enzyme activity assay (SelectScreen Kinase Profiling), JAK3
T1 sequence (P52333 1-1124): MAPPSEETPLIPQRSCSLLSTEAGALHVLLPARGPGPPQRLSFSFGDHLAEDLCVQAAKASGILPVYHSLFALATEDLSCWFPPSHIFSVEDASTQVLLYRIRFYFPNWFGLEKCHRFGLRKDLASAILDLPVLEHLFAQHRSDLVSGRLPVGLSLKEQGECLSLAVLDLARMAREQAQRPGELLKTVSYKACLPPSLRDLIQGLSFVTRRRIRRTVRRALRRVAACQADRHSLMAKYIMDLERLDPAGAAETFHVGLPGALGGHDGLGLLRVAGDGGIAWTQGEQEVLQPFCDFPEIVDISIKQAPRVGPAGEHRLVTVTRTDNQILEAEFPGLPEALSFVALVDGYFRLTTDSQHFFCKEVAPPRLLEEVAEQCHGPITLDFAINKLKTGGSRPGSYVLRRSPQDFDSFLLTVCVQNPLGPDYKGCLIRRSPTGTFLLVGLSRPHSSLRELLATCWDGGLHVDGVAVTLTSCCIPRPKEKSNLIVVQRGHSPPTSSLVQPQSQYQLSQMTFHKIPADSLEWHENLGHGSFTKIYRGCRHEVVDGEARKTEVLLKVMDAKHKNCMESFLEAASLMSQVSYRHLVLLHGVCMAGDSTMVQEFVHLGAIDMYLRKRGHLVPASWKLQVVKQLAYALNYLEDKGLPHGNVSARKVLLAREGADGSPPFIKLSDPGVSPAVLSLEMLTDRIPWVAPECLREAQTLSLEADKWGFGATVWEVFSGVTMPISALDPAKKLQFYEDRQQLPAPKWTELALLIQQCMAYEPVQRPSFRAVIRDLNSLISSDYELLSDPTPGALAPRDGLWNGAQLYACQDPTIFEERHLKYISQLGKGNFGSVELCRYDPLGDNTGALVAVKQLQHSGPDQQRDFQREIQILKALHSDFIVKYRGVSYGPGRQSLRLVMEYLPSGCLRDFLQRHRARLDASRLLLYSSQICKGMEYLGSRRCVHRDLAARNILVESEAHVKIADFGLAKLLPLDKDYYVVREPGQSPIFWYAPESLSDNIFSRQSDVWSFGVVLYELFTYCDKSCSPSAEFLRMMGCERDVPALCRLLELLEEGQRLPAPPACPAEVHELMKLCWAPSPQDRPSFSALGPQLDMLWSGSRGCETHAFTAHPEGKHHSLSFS

[3] = Mouse PK after subcutaneous injection; assay type: in vivo; conditions: 2 mg/kg s.c., CD-1 mice, time points up to 6 h; WU derivatives compared to BARI
[4] = Human liver microsome (HLM) assay; assay type: in vitro ADME; conditions: incubations with human liver microsomes
Description: Subsequently, we assessed the in vitro metabolic stability and clearance values of WU derivatives in an HLM assay.
(A,B) Mouse PK following subcutaneous administration of WU derivatives (2 mg/kg) to CD-1 mice. […] All error bars are represented as mean ± standard deviation.
Mouse PK and in vitro human liver microsome (HLM) assay studies were conducted by Charles River Laboratories, Inc. (Wilmington, MA, USA). Briefly, male CD-1 mice were used in mouse PK studies. […] At 24 h, no drug levels were detected in plasma for any of the compounds tested. In addition, WU derivatives were evaluated in an in vitro HLM assay to determine the intrinsic human liver microsomal clearance values of compounds in incubations with human liver microsomes.

JAK2 = JAK2 (Homo sapiens, UniProt O60674); assay: Z'-LYTE enzyme activity assay (SelectScreen Kinase Profiling), JAK2
JAK2, sequence (O60674 whole entry): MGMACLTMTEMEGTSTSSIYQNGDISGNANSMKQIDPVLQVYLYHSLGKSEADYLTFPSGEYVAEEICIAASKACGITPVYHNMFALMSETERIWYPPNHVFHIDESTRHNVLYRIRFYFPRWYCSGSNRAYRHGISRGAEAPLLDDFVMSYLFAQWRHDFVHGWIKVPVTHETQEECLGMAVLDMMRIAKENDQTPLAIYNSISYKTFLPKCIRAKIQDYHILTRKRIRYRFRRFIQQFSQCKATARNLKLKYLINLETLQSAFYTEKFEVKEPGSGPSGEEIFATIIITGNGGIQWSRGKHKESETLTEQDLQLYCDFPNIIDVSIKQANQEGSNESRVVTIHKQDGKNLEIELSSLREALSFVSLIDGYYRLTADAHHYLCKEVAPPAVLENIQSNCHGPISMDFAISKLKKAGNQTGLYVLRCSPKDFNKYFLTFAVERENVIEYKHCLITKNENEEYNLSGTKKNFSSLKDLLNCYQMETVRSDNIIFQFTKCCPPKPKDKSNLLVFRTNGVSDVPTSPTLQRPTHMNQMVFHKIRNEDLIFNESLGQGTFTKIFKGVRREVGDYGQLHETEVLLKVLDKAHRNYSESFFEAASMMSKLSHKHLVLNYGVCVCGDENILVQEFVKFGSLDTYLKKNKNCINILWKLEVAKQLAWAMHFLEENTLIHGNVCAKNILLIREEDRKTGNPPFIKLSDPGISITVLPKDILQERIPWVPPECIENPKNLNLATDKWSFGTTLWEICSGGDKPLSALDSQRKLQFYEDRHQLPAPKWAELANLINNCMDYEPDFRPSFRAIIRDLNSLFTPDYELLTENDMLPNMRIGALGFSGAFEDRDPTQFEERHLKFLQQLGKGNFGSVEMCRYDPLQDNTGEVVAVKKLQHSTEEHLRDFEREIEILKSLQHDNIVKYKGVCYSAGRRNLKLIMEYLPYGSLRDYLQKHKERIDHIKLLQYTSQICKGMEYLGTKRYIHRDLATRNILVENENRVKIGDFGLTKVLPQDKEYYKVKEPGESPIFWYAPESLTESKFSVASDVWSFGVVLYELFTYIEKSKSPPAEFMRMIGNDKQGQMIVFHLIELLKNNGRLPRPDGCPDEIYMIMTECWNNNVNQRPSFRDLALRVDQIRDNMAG

PKN1 = conditions: murine and human whole-kinome analyses; cited from earlier work
JAK1 = JAK1 (Homo sapiens, UniProt P23458); assay: Z'-LYTE enzyme activity assay (SelectScreen Kinase Profiling), JAK1
JAK1, sequence (P23458 whole entry): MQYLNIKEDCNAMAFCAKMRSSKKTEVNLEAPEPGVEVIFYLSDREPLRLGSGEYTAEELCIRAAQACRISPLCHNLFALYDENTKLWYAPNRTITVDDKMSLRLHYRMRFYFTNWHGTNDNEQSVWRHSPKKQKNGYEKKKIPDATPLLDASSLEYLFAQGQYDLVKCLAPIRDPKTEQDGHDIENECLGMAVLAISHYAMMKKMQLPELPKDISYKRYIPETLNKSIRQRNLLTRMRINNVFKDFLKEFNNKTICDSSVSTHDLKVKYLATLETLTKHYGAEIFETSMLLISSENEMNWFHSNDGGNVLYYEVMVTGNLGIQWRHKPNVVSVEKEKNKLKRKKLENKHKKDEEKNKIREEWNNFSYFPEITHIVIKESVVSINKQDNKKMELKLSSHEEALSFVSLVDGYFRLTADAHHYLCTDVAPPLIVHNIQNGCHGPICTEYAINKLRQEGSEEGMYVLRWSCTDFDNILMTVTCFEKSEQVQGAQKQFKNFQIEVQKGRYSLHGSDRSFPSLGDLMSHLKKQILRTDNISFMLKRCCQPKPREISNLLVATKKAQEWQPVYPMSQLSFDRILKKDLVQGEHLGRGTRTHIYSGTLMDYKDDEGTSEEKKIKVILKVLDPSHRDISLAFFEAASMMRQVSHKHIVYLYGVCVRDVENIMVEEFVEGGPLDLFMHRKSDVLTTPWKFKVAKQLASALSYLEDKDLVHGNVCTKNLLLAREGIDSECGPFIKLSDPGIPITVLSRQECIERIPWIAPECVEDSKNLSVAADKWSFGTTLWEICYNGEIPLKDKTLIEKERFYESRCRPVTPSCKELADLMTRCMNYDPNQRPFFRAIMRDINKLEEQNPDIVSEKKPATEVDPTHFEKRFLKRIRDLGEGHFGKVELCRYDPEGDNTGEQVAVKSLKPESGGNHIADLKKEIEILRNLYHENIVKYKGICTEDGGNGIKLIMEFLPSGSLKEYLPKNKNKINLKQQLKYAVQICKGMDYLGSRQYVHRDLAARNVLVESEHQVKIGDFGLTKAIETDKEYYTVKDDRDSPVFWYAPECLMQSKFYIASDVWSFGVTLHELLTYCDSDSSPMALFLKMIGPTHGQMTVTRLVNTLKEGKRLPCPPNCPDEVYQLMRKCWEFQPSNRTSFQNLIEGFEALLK

[5] = 4 mg/kg s.c. once daily for 3 weeks from day 3, vs vehicle control
[6] = 20 mg/kg s.c. once daily for 3 weeks from day 3, vs vehicle control
[7] = dose not given, vs vehicle control

IC50 (TYK2; IC50 TYK2, ATP at app. Km) [nM] | IC50 (JAK3; IC50 JAK3, ATP at app. Km) [nM] | IC50 (JAK2; IC50 JAK2, ATP at app. Km) [nM] | Structure (SMILES) | IC50 (TYK2; IC50 TYK2, ATP at 1 mM) [nM] | IC50 (JAK3; IC50 JAK3, ATP at 1 mM) [nM] | IC50 (JAK2; IC50 JAK2, ATP at 1 mM) [nM] | also measured
12.1 | 12.3 | 0.867 | CCS(=O)(=O)N1CCC2(CC1)CCC(CC#N)(n1cc(-c3ncnc4[nH]ccc34)cn1)CC2 [WU7] | 275 | 423 | 13.8 | plasma drug concentration (mouse PK) [3]: significant reduction in plasma concentration at 2 h after injection; in vitro metabolic stability in HLM [4]: diminished HLM metabolic stability
578 | 36.2 | 35.1 | CCS(=O)(=O)N1CC2(CCC2(CC#N)n2cc(-c3ncnc4[nH]ccc34)cn2)C1 (stereo not drawn) [WU3] | – | – | – | –
574 | 418 | 54.2 | CCS(=O)(=O)N1CCC12CC(CC#N)(n1cc(-c3ncnc4[nH]ccc34)cn1)C2 (stereo not drawn) [WU2] | – | – | – | –
2.24 | 10.4 | 0.406 | N#CCC1(n2cc(-c3ncnc4[nH]ccc34)cn2)CS(=O)(=O)C1 [WU9] | 34.7 | 501 | 9.67 | –

More lines, now with the values behind:

Structure (SMILES) | IC50 (TYK2; IC50 TYK2, ATP at app. Km) [nM] | IC50 (JAK3; IC50 JAK3, ATP at app. Km) [nM] | IC50 (JAK2; IC50 JAK2, ATP at app. Km) [nM] | IC50 (TYK2; IC50 TYK2, ATP at 1 mM) [nM] | IC50 (JAK3; IC50 JAK3, ATP at 1 mM) [nM] | IC50 (JAK2; IC50 JAK2, ATP at 1 mM) [nM] | also measured
CCS(=O)(=O)N1CC(CC#N)(n2cc(-c3ncnc4[nH]ccc34)cn2)C1 [BARI, baricitinib, reference compound] | 2.21 | – | – | 42.3 | – | – | clinical GvHD scores (GvHD; [5]): less clinical GvHD scores; overall survival (GvHD; [5]): significantly improved survival rate; clinical GvHD scores (GvHD; [6]): less clinical GvHD scores; overall survival (GvHD; [6]): significantly improved survival rate; plasma protein binding [1]: 50%; terminal plasma half-life ([2]; in vivo): ~ 8.5 h; metabolism (extent) ([2]; in vivo): very little metabolism
CS(=O)(=O)C1CC(CC#N)(n2cc(-c3ncnc4[nH]ccc34)cn2)C1 (stereo not drawn) [WU10] | 4.56 | 13 | 0.37 | 108 | 496 | 6.11 | % of Tregs in the spleens (GvHD; dose not given, day 6 after allo-HCT, vs vehicle control): significantly increased the % of Tregs; clinical GvHD scores (GvHD; [7]): reduced GvHD; overall survival (GvHD; [7]): trend towards increased overall survival; blood cell recovery (lymphocytes and white blood cells) (GvHD; dose not given, whole blood, day 27 after allo-HCT): trend towards improvement in blood cell recovery
CCS(=O)(=O)N1CC2(C1)CC(CC#N)(n1cc(-c3ncnc4[nH]ccc34)cn1)C2 [WU1] | 29.4 | 60.8 | 8.22 | – | – | – | –
N#CC[C@H](C1CCCC1)n1cc(-c2ncnc3[nH]ccc23)cn1 [RUX, Ruxolitinib] | – | – | – | – | – | – | inhibition of off target PKN1 (PKN1): not by RUX; plasma protein binding [1]: 97%; metabolism (extent) ([2]; RUX mostly in the liver via CYP(3A4)): > 99%; terminal plasma half-life ([2]; in vivo): ~ 2 h
CC(C)(C)NS(=O)(=O)NC1CC2(C1)CC(CC#N)(n1cc(-c3ncnc4[nH]ccc34)cn1)C2 (stereo not drawn) [WU5] | 3.11 | 11.2 | 0.45 | 58.9 | 623 | 9.88 | % of donor BM-derived B and T cells in the peripheral blood (GvHD; dose not given, day 27 after allo-HCT, vs vehicle control): increased the % of donor BM-derived B and T cells; clinical GvHD scores (GvHD; [7]): less clinical GvHD scores; overall survival (GvHD; [7]): significantly improved overall survival; IC50 (JAK1; IC50 JAK1, ATP at 1 mM): 8.2 nM; IC50 (JAK1; IC50 JAK1, ATP at app. Km): 1.47 nM
